The values below come from patent publication EP0251013A2, “Fluorine containing o-aminophenols” (BAYER AG, priority 1986, dated 1988).

Type in all cases: in vivo
One assay has as its system Cynodon. Nature of the assay: Pre-emergence test, greenhouse. The conditions noted are these: Cynodon, 1,0 kg/ha, rated after three weeks vs untreated control. The text has this: (§1) Lösungsmittel: 5 Gewichtsteile Aceton Emulgator: 1 Gewichtsteil Alkylarylpolyglykolether
(§2) Zur Herstellung einer zweckmäßigen Wirkstoffzubereitung vermischte man 1 Gewichtsteil Wirkstoff mit der angegebenen Menge Lösungsmittel, gab die angegebene Menge Emulgator zu und verdünnte das Konzentrat mit Wasser auf die gewünschte Konzentration.
(§3) Samen der Testpflanzen wurden in normalen Boden ausgesät und nach 24 Stunden mit der Wirkstoffzubereitung begossen. Dabei wurde die Wassermenge pro Flächeneinheit zweckmäßigerweise konstant gehalten. Die Wirkstoffkonzentration in der Zubereitung spielte keine Rolle, entscheidend war nur die Aufwandmenge des Wirkstoffs pro Flächeneinheit. Nach drei Wochen wurde der Schädigungsgrad der Pflanzen bonitiert in % Schädigung im Vergleich zur Entwicklung der unbehandelten Kontrolle. Es bedeuten: • 0 % = keine Wirkung (wie unbehandelte Kontrolle) • 100 % = totale Vernichtung

Assay [1] relates to Baumwolle. The experiment in a line: Pre-emergence test, greenhouse. The note with it: Baumwolle, 1,0 kg/ha, rated after three weeks vs untreated control (0 % = no effect, 100 % = total destruction).
Description: as §1, §2, §3

Another assay relates to Portulak. The experiment in a line: Pre-emergence test, greenhouse. The conditions noted are these: Portulak, 1,0 kg/ha, rated after three weeks vs untreated control.
Description: as §1, §2, §3

In the next assay the test system is Datura. Nature of the assay: Pre-emergence test, greenhouse. The note with it: Datura, 1,0 kg/ha, rated after three weeks vs untreated control.
Description: as §1, §2, §3

Assay [2] concerns Chenopodium. Nature of the assay: Pre-emergence test, greenhouse. The note with it: Chenopodium, 1,0 kg/ha, rated after three weeks vs untreated control.
Description: as §1, §2, §3

The next assay relates to Matricaria. Nature of the assay: Pre-emergence test, greenhouse. The note with it: Matricaria, 1,0 kg/ha, rated after three weeks vs untreated control.
Description: as §1, §2, §3

Another assay deals with Weizen. Nature of the assay: Pre-emergence test, greenhouse. The note with it: Weizen, 1,0 kg/ha, rated after three weeks vs untreated control.
Description: as §1, §2, §3

For another assay, the system named is Stellaria. The experiment in a line: Pre-emergence test, greenhouse. The conditions noted are these: Stellaria, 1,0 kg/ha, rated after three weeks vs untreated control.
Description: as §1, §2, §3

The subject of a further assay is Sinapis. Nature of the assay: Post-emergence test, greenhouse. The conditions noted are these: Sinapis, 0,25 kg/ha, rated after three weeks vs untreated control.
Description: as §1, §2
(§4) Mit der Wirkstoffzubereitung spritzte man Testpflanzen, welche eine Höhe von 5 - 15 cm hatten so, daß die jeweils gewünschten Wirkstoffmengen pro Flächeneinheit ausgebracht wurden. Die Konzentration der Spritzbrühe wurde so gewählt, daß in 2000 1 Wasser/ha die jeweils gewünschten Wirkstoffmengen ausgebracht wurden. Nach drei Wochen wurde der Schädigungsgrad der Pflanzen bonitiert in % Schädigung im Vergleich zur Entwicklung der unbehandelten Kontrolle.
(§5) Es bedeuten: • 0 % = keine Wirkung (wie unbehandelte Kontrolle) • 100 % = totale Vernichtung

Assay [3] has as its system Baumwolle. Nature of the assay: Post-emergence test, greenhouse. The conditions noted are these: Baumwolle, 0,25 kg/ha, sprayed on plants 5 - 15 cm high, rated after three weeks vs untreated control (0 % = no effect, 100 % = total destruction).
Description: as §1, §2, §4, §5

Assay [4] deals with Chenopodium. Nature of the assay: Post-emergence test, greenhouse. The conditions noted are these: Chenopodium, 0,25 kg/ha, rated after three weeks vs untreated control.
Description: as §1, §2, §4, §5

For a further assay, the system named is Solanum. Nature of the assay: Post-emergence test, greenhouse. The conditions noted are these: Solanum, 0,25 kg/ha, rated after three weeks vs untreated control.
Description: as §1, §2, §4, §5

For another assay, the system named is Echinochloa. Nature of the assay: Post-emergence test, greenhouse. The note with it: Echinochloa, 0,25 kg/ha, rated after three weeks vs untreated control.
Description: as §1, §2, §4, §5

The subject of a further assay is Poa. Nature of the assay: Post-emergence test, greenhouse. The note with it: Poa, 0,25 kg/ha, rated after three weeks vs untreated control.
Description: as §1, §2, §4, §5

A further assay concerns Mais. Nature of the assay: Post-emergence test, greenhouse. The conditions noted are these: Mais, 0,25 kg/ha, rated after three weeks vs untreated control.
Description: as §1, §2, §4, §5

With `FC(Cl)(Cl)Sn1c(C(F)(F)F)nc2cc(C(F)(F)F)c(Cl)cc21` [Beispiel 13, 1-Dichlorfluormethylsulfenyl-2,5-bis(trifluormethyl)-6-chlorbenzimidazol], the “Schädigungsgrad der Pflanzen in % Schädigung” value in the assay with Cynodon was determined as 100%; in the assay with Baumwolle [1] it was 0%; in the assay on Portulak it was 100%; with Datura, 80%; with Chenopodium [2], 100%; with Matricaria it was 80%. Besides, the “Schädigungsgrad der Pflanzen in % Schädigung” value in the assay on Weizen is 0%; in the assay on Stellaria, 80%; in the assay on Sinapis, 100%; in the assay with Baumwolle [3] it was 20%; with Chenopodium [4], 100%; in the assay with Solanum it was 100%. The figures for the “Schädigungsgrad der Pflanzen in % Schädigung” value in the assay with Echinochloa, with Poa and in the assay on Mais were 80%, 100% and 50%, respectively.
